Data as given in patent US9095591B2, “Pharmaceutical composition for use in the treatment of glaucoma” (Institut National de la Sante et de la Recherche Medicale …, priority 2010, dated 2015).
“Also recorded” adds a separate entry of the source.

Columns and labels:
[1] = test system: rat model of surgically-induced glaucoma; assay: Intraocular pressure (IOP, TonoPen) in rat model of surgically-induced glaucoma (episcleral vein cauterization); format: in vivo, Brown Norway rats; conditions: for effect on IOP in control (nonglaucomatous, non-operated) eyes: subconjunctival injection; for effect on IOP in glaucomatous eyes (CXCR4 antagonist comparison): subconjunctival injections, FIG. 3
Protocol: In order to test the functionality of putative CXCR3 blocking compounds on intraocular pressure (IOP), an in vivo test is necessary. For that purpose a model of local eye hypertonia is highly relevant. The model of ocular hypertonia in rats by episcleral vein occlusion (Garcia-Valenzuela et al., 1995) as described in the figures can be used to test such molecules.
Subconjunctival injections of NBI74330 (1 μM) or vehicle were performed in glaucoma eyes and in control eyes. One single injection of NBI (A) induced a reduction in IOP during 3 days (p<0.001). Two injections of NBI (A and B) induced a decrease in IOP during 12 days (p<0.001). […] (In vivo measurements of the IOP using TonoPen).
Male 8-week-old Brown Norway rats weighing 300-400 g were housed in Jussieu animal house (UMRS968, Vision Institute, Paris, France). All experiments were conducted in accordance with the Association for Research in Vision and Ophthalmology for the Use of Animals in Ophthalmic research. Ocular integrity was checked using slit lamp biomicroscope. Surgical model of elevated IOP was induced in the right eye of each rat by cauterization of three episcleral veins after conjunctival dissection as previously reported [Bayer A U et Al., 2001 and Garcia-Valenzuela E et Al., 1995] under general anaesthesia (intra peritoneal injection of ketamine 75 mg/kg and xylazine 10 mg/kg). Left eyes underwent conjunctival dissection only as controls. After the surgery, animals were maintained for a 1-month period and monitored for IOP three times a week using a handheld tonometer (Tonopen, Medtronics, Jacksonville, Fla.) without sedation. 30 animals presenting a stable elevated IOP were included and randomly divided in three equal groups: in both eyes, 10 rats received one subconjunctival injection of NBI74330 (1 μM, 100 μl), […], and 10 rats received a vehicle injection (PBS, 100 μl). IOP was monitored every two days by one independent person i.e. who was blind of the treatment. At the end of the experiments, animals were euthanized and the eyes were immediately conditioned for IHC.

[2] = test system: rat model of surgically-induced glaucoma; assay: Aqueous humor outflow by in vivo fluorophotometry in rat glaucoma model; design: species or system Brown Norway rats; conditions: glaucomatous eyes vs vehicle-treated; 1 μM, 100 μL, two subconjunctival injections
Protocol: (§1) Aqueous humor outflow was measured by in vivo fluorophotometry (FIG. 4A) and the trabecular aqueous outflow evaluated by fluorescent microsphere injection and ex vivo confocal imaging of TMs (data not shown). […] In parallel, rat TM tissues were assessed for cellularity and apoptosis by immunohistofluorescence and TUNEL-labeling.

trabecular meshwork = assay: Trabecular percent effective filtration length (fluorescent microsphere injection, ex vivo confocal imaging of TMs); format: in vivo, Brown Norway rats; conditions: glaucomatous eyes; 1 μM, 100 μL, two subconjunctival injections
Protocol: as §1

trabecular cells = assay: Trabecular cell apoptosis by TUNEL-labeling in rat glaucoma model; format: in vivo, Brown Norway rats; conditions: glaucoma eyes treated vs untreated
Protocol: (§2) Eyes were conditioned into cryosections and assessed for apoptosis using TUNEL-labeling. TM was identified in each cryosections as a pigmented slim tissue on the posterior sclera-cornea beside the iris root and just above the endothelial Schlemm's canals.
Investigations were conducted in order to study mechanisms involved in the NBI-74330-related decrease in IOP. Aqueous humor outflow was measured by in vivo fluorophotometry (FIG. 4A) and the trabecular aqueous outflow evaluated by fluorescent microsphere injection and ex vivo confocal imaging of TMs (data not shown). […] This decrease in trabecular outflow facility is similar to what is observed during hypertensive POAG in humans. […] In parallel, rat TM tissues were assessed for cellularity and apoptosis by immunohistofluorescence and TUNEL-labeling.

retinal ganglion cells = assay: Apoptosis of Schlemm cells, retinal cells and retinal ganglion cells by TUNEL-labeling in rat glaucoma model; format: in vivo, Brown Norway rats
Excerpt: as §2
Moreover, NBI-related reduction in IOP was associated with a decrease in retinal ganglion cell apoptosis as assessed by TUNEL-labeling (4.01±0.86, 11.11±3.62, and 5.73±1.15 apoptotic retinal ganglion cells/mm for control eyes, untreated glaucomatous eyes, and NBI-treated glaucomatous eyes, respectively; P<0.05 between each group).

[3] = glaucoma eyes treated vs untreated

Compound	effect on IOP in control (nonglaucomatous, non-operated) eyes [1]	effect on IOP in control (nonglaucomatous, non-operated) eyes ([1]; listed as AMD-3100)	effect on IOP in glaucomatous eyes (CXCR4 antagonist comparison) ([1]; glaucomatous eyes (n=20))	effect on IOP in glaucomatous eyes (CXCR4 antagonist comparison) ([1]; glaucomatous eyes (n=20), listed as AMD-3100)	effect on IOP in control (nonglaucomatous, non-operated) eyes ([1]; listed as NBI-74330)	duration of reduction in IOP ([1]; glaucoma eyes, one single subconjunctival injection, 1 μM, p<0.001) [days]	IOP after a second injection ([1]; glaucoma eyes, second subconjunctival injection 4 days after the first one)	time course of IOP lowering after a single injection ([1]; glaucoma eyes, single subconjunctival injection 1 μM, 100 μl)	duration of decrease in IOP ([1]; glaucoma eyes, two subconjunctival injections, 1 μM, p<0.001) [days]	dose dependence of IOP reduction ([1]; glaucomatous eyes (n=20), FIG. 2)	effect on IOP in glaucoma eyes ([1]; surgically-induced elevated IOP, subconjunctival injection 1 μM, 100 μl)	aqueous humor outflow (AHO) [2]	percent effective filtration length (PEFL), trabecular filtrating surface (trabecular meshwork)	trabecular cell apoptosis (TUNEL) (trabecular cells)	trabecular cell apoptosis (TUNEL) (trabecular cells; listed as NBI-74330)	retinal ganglion cell apoptosis (TUNEL) (retinal ganglion cells; NBI-treated glaucomatous eyes, control eyes 4.01±0.86, untreated glaucomatous eyes 11.11±3.62, P<0.05)	TUNEL labeling of endothelial Schlemm cells (retinal ganglion cells; [3])	TUNEL labeling of retinal cells (inner nuclear layer and ganglion cell layer) (retinal ganglion cells; [3])
c1cc(CN2CCCNCCNCCCNCC2)ccc1CN1CCCNCCNCCCNCC1 [AMD3100]	did not affect the IOP; also recorded: had no effect on the basal IOP level	had any effect on IOP	did not affect the IOP	did not influence IOP	–	–	–	–	–	–	–	–	–	–	–	–	–	–
CCOc1ccc(-n2c(C(C)N(Cc3cccnc3)C(=O)Cc3ccc(F)c(C(F)(F)F)c3)nc3ncccc3c2=O)cc1 (stereo not shown) [NBI74330]	did not influence the IOP; also recorded: had no effect on the basal IOP level	–	–	–	had any effect on IOP	3	a significantly low IOP was maintained until the end of the experiments	significant the 2nd to the 5th day after the treatment, reaching the average IOP level of control eyes	12	reduced the IOP in glaucomatous eyes (n=20) in a dose-dependent manner	induced an IOP lowering	AHO was improved; also recorded: aqueous humor outflow impairment was significantly reversed	significantly improved	Apoptosis was higher in trabecular cells of untreated glaucoma eyes than in glaucoma eyes treated with NBI74330	Trabecular apoptosis was reversed; also recorded: significantly reduced the amount of apoptotic TCs	5.73±1.15 apoptotic retinal ganglion cells/mm	more TUNEL labeling in the untreated glaucoma eyes than in glaucoma eyes treated with NBI74330	more TUNEL labeling in the untreated glaucoma eyes than in glaucoma eyes treated with NBI74330
